From patent publication US20170056380A1, “Systems, Methods, Techniques, and Compounds in Research and Treatment of Portal Hypertension and other Conditions” (priority 2014, published 2017)
“Also recorded” adds a separate entry of the source.

Key:
hepatic stellate cells = experiment: Collagen lattice assay (ET-1 stimulated stellate cell contraction, coculture with sinusoidal endothelial cells); type: cell-based, rat; conditions: 50 or 100 nM 2 h, then ET-1 10 nM; coculture on collagen lattices
Procedure: For coculture experiments, freshly isolated stellate cells and freshly isolated sinusoidal endothelial cells were isolated separately and mixed together on collagen-coated plates and cultured for 5 days. Sinusoidal endothelial cells were plated at a density of 200,000 cells/cm2, and stellate cells were at a density of 65,000 cells/cm2.
Collagen lattice assay. Contraction of hepatic stellate cells was performed as previously described with minor modifications (25). Briefly, individual wells of a 24-well culture dish were incubated with PBS containing 1% BSA (500 μl/well) for 1 h at 37° C. and then washed two times with PBS and allowed to air dry. Collagen gels were prepared by mixing 60% type I tail collagen (Upstate Laboratories), 10% 10×MEM (GIBCO), 10% 0.2 HEPES, and 20% DMEM (GIBCO) to make a final concentration of collagen of 2.4 mg/ml. The solution was added to the culture wells and incubated for 1 h at 37° C., and hepatic stellate cells and sinusoidal endothelial cells were isolated separately from normal rat livers and cocultured (each at a density of 100,000 cells/lattice) on collagen lattices for 5 days. Cells were changed to serum-free medium overnight, then exposed to cicletanine, and then stimulated with endothelin-1 (ET-1, 10 nM). Collagen lattices were released from their substrata, and gel contraction was measured from 0 to 30 min.

eNOS = eNOS phosphorylation (Ser1177) and total eNOS by immunoblotting in sinusoidal endothelial cells; type: cell-based, rat
Procedure: Cell isolation and culture. Sinusoidal endothelial cells were isolated from male Sprague-Dawley rats (450-500 g) (Harlan, Indianapolis, Ind.). In brief, after in situ perfusion of the liver with 20 mg/100 mg pronase (Roche Molecular Biochemicals, Indianapolis, Ind.), followed by collagenase (Worthington Biochemical, Lakewood, N.J.), dispersed cell suspensions were removed from a layered discontinuous density gradient of 8.2 and 15.6% Accudenz (Accurate Chemical and Scientific, Westbury, N.Y.), further purified by centrifugal elutriation (18 ml/min flow), and were grown in medium containing 20% serum (10% horse/calf). The purity of endothelial cells was documented by their uptake of fluorescently labeled di-l-acetoacetylated low-density lipoprotein as described (21). Only primary sinusoidal endothelial isolates of >95% purity were used for study. Experiments were performed with cells frorrr a minimum three different isolations (for all experiments).
Immunoblotting, Immunoblotting was performed by using specified primary antibodies, including anti-eNOS antibody (1:1,000; BD Transduction Laboratories, San Jose, Calif.), anti-phospho-eNOS-Ser^1177 (1:1,000; BD Transduction Laboratories or Cell Signaling Technology), anti-phospho-Akt, anti-Akt (Cell Signaling Technology, Beverly, Mass.), and horseradish peroxidase-conjugated secondary antibody. Specific signals were visualized using enhanced chemiluminescence as per the manufacturer's instructions and were scanned and quantitated with standard software.
(§1) Animal model of liver injury and portal hypedension. Liver injury and portal hypertension were induced by performing bile duct ligation in 450- to 500-gram male retired breeder Sprague-Dawley rats as described in Liu and 20- to 25-gram male BALB/c mice. Briefly, bile duct ligation was performed by surgical isolation and ligation of the common bile duct. This model creates a portal-based fibrogenic response and portal hypertension 10-14 days after surgery (Liu). For study of injured sinusoidal endothelial cells, we used the rat model of bile duct ligation (10-14 days postsurgery); for in vivo study (primarily to conserve the use of active compound), we used the mouse model of bile duct ligation (examining portal pressure 4 wk postsurgery). In sham-operated rats or mice, laparotomy without isolation and section of the bile duct was performed. Studies were approved by the local Institutional Animal Care and Use Committees. Portal pressure measurement. Portal hypertension was induced in male BALB/c mice by bile duct ligation as above. Cicletanine (5 mg·kg^−1·day^−1) or vehicle was given by gavage as a single daily dose for 10 days before portal pressure measurement as described in Liue. In brief, mice were anesthetized, and an intravenous catheter (Becton Dickinson Vascular Access, Sandy, Utah) was introduced in the portal vein and secured with a silk tie. A calibrated low-pressure transducer (Digi-Med, Louisville, Ky.) was connected to the portal vein catheter, and portal pressure was recorded continuously using the Digi-Med Integrator 200 System (Digi-bled).

[1] = system: bile duct-ligated (BDL) mice; experiment: Portal pressure measurement in bile duct-ligated and sham-operated mice; type: in vivo, BALB/c mice; conditions: 5 mg·kg−1·day−1 by gavage for 10 days
Procedure: as §1, with “In brief, mice were anesthetized, and an intravenous catheter (Becton Dickinson Vascular Access, Sandy, Utah) was introduced in the portal vein and secured with a silk tie.” left out

[2] = cicletanine 100 nM, normal sinusoidal endothelial cells

SMILES: Cc1ncc2c(c1O)COC2c1ccc(Cl)cc1 (centres unmarked) [cicletanine, 3-(4-chlorophenyl)-1,3-dihydro-7-hydroxy-6-methylfuro-(3,4-c) pyridine]
- stellate cell contraction (hepatic stellate cells): inhibited stellate cell contraction in a dose-dependent manner
- phosphorylation of eNOS, dose dependence (eNOS; 50 or 100 nM, 2 h, normal sinusoidal endothelial cells): increased in a dose-dependent manner
- time after exposure of greatest eNOS phosphorylation (eNOS; cicletanine 100 nM, 0-4 h): 1 h
- eNOS phosphorylation at Ser1177 (eNOS; [2]): stimulated; also recorded: increased
- total eNOS expression (eNOS; [2]): unchanged
- eNOS phosphorylation (eNOS; sinusoidal endothelial cells injured by bile duct ligation, 2 h): restored eNOS phosphorylation to above basal levels
- portal pressure ([1]; BDL mice): significantly reduced
- portal pressure ([1]; sham-operated mice): Slight and nonsignificant decreases
